Measured values published in ChEMBL document CHEMBL1144944, “Discovery of an orally efficacious inhibitor of coagulation factor Xa which incorporates a neutral P1 ligand” (J Med Chem, 2003).

Assays:
Coagulation factor X = Coagulation factor X (Homo sapiens, UniProt P00742); assay: In vitro binding affinity for human Coagulation factor X
Prothrombin = Prothrombin (Homo sapiens, UniProt P00734); assay: Binding affinity towards thrombin
Serine protease 1 = Serine protease 1 (Homo sapiens, UniProt P07477); assay: Binding affinity towards trypsin
Chain of Serine protease 1 (P07477 whole entry): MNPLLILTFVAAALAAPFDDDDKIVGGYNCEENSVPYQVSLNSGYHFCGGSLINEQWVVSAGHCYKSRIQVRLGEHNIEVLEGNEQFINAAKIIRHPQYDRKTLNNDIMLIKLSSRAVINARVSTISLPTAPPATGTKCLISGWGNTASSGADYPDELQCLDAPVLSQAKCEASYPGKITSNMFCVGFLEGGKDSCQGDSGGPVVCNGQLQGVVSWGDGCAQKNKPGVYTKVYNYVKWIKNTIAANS

[1] = Oral bioavailability in dog (dose 10 mg/kg); assay type: ADME, organism-based, Canis lupus familiaris; conditions: in vivo
[2] = Half life period after peroral administration (10 mpk) was determined in dog; assay type: ADME, organism-based, Canis lupus familiaris; conditions: in vivo, po, 10 mg/kg
[3] = Maximum plasma concentration after peroral administration (10 mpk) was determined in dog; assay type: ADME, organism-based, Canis lupus familiaris; design: route oral; conditions: po, 10 mg/kg
Caco-2 = assay: Compound was tested in vitro for its percent absorption towards CaCo-2 cell monolayer; assay type: functional, cell-based; conditions: Homo sapiens
Canis familiaris = species: Canis familiaris; assay: Concentration of inhibitor required to double the activated partial thromboplastin time in dog was determined; assay type: functional, organism-based; conditions: Canis lupus familiaris
Homo sapiens = species: Homo sapiens; assay: Concentration of inhibitor required to double the activated partial thromboplastin time in human was determined; assay type: functional, organism-based
[4] = Ionization constant is the negative logarithm of the equilibrium coefficient of the neutral and charged forms of the compound; assay type: physicochemical
[5] = Ionization constant was determined for the compound; assay type: physicochemical
[6] = Percent oral bioavailability after peroral administration (5 mpk) was determined in dog; assay type: ADME, organism-based, Canis lupus familiaris; conditions: in vivo, 5 mg/kg
[7] = Half life period after peroral administration (5 mpk) was determined in dog; assay type: ADME, organism-based, Canis lupus familiaris; conditions: in vivo, po, 5 mg/kg
[8] = Maximum plasma concentration after peroral administration (5 mpk) was determined in dog; assay type: ADME, organism-based, Canis lupus familiaris; design: route oral; conditions: po, 5 mg/kg

Chain of Coagulation factor X (P00742 41-179 limits assumed): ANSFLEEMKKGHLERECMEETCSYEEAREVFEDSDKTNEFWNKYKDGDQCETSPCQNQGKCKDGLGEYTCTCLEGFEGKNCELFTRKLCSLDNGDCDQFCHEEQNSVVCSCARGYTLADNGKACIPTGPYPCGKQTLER
Chain of Coagulation factor X (P00742 235-488 limits assumed): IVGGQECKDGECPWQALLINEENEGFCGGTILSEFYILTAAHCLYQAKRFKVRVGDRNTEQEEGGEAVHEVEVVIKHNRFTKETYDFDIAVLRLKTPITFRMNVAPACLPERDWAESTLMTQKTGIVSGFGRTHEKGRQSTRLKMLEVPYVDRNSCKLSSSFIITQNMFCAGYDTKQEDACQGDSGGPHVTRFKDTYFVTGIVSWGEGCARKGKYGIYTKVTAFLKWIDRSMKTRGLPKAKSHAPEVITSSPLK

Row | Structure (SMILES) | Ki (Coagulation factor X) [µM] | Ki (Prothrombin) [µM] | Ki (Serine protease 1) [µM] | also measured
1 | O=C(O)Cn1c(CN2CCN(S(=O)(=O)c3cc4ccc(Cl)cc4s3)CC2=O)cc2cnccc21 | 0.154 | > 3.9 | > 2.9 | –
2 | O=C1CN(S(=O)(=O)c2cc3ccc(Cl)cc3s2)CCN1Cc1cc2cnccc2n1CCO | – | – | – | bioavailability [1]: 11%; half-life [2]: 139 min; Cmax [3]: 783 nM
3 | O=C1CN(S(=O)(=O)c2cc3ncccc3s2)CCN1Cc1cc2c[nH]ccc-2n1 | > 1.2 | – | – | –
4 | COC(=O)Cn1c(CN2CCN(S(=O)(=O)c3cc4ccc(Cl)cc4s3)CC2=O)cc2cnccc21 | 0.018 | > 3.9 | > 2.9 | Absorption (Caco-2): 47.6%
5 | O=C1CN(S(=O)(=O)c2sc3ccccc3c2Cl)CCN1Cc1cc2c[nH]ccc-2n1 | > 1.2 | – | – | –
6 | Cn1c(CN2CCN(S(=O)(=O)c3cc4ccc(Cl)cc4s3)CC2=O)cc2cnccc21 | 0.003 | > 3.9 | > 2.9 | Absorption (Caco-2): 3%
7 | COc1cc(/C=C/S(=O)(=O)N2CCN(Cc3cc4c[nH]ccc-4n3)C(=O)C2)sc1Cl | > 1.2 | – | – | –
8 | O=C1CN(S(=O)(=O)c2ccc(-c3ccc(Cl)cc3)cc2)CCN1Cc1cc2c[nH]ccc-2n1 | > 1.2 | – | – | –
9 | O=C1CN(S(=O)(=O)c2ccc(-c3ccc(Cl)s3)s2)CCN1Cc1cc2c[nH]ccc-2n1 | 0.023 | – | – | –
10 | O=C1CN(S(=O)(=O)c2cc3ccccc3s2)CCN1Cc1cc2c[nH]ccc-2n1 | 0.959 | – | – | –
11 | O=C1CN(S(=O)(=O)c2cc3cccnc3s2)CCN1Cc1cc2c[nH]ccc-2n1 | > 1.2 | – | – | –
12 | O=C1CN(S(=O)(=O)c2cc3ncc(Cl)cc3s2)CCN1Cc1cc2c[nH]ccc-2n1 | 1.2 | – | – | –
13 | O=C1CN(S(=O)(=O)/C=C/c2ccc(Cl)cc2)CCN1Cc1cc2c[nH]ccc-2n1 | 0.048 | – | – | –
14 | NC(=O)Cn1c(CN2CCN(S(=O)(=O)c3cc4ccc(Cl)cc4s3)CC2=O)cc2cnccc21 | 0.008 | > 3.9 | > 2.9 | Absorption (Caco-2): 7%
15 | O=C1CN(S(=O)(=O)c2cc3ccc(Cl)nc3s2)CCN1Cc1cc2c[nH]ccc-2n1 | 0.004 | – | – | –
16 | O=C1CN(S(=O)(=O)CCc2ccc(Cl)s2)CCN1Cc1cc2c[nH]ccc-2n1 | 0.128 | – | – | –
17 | O=C1CN(S(=O)(=O)/C=C/c2ccc(Cl)s2)CCN1Cc1cc2c[nH]ccc-2n1 | – | – | – | bioavailability [6]: 97%; half-life [7]: 52 min; Cmax [8]: 1640 nM; Concentration (Canis familiaris): 2.2 µM; Concentration (Homo sapiens): 0.59 µM

Now from value to molecule, other results behind:

Row | Ki (Coagulation factor X) [µM] | Ki (Prothrombin) [µM] | Ki (Serine protease 1) [µM] | Structure (SMILES) | also measured
18 | – | 2.9 | > 2.9 | O=C1CN(S(=O)(=O)c2cc3ccc(Cl)cc3s2)CCN1Cc1cc2c[nH]ccc-2n1 | bioavailability [1]: 99%; half-life [2]: 36 min; Absorption (Caco-2): 6%; Concentration (Canis familiaris): 5 µM; Concentration (Homo sapiens): 2 µM; Cmax [3]: 658 nM; pKa [4]: 8.3
19 | > 1.2 | > 3.9 | > 2.9 | O=C1CN(S(=O)(=O)c2cc3ccc(Cl)cc3s2)CCN1Cc1nc2cc[nH]cc-2n1 | pKa [5]: 6.1
20 | 1.22 | > 3.9 | > 2.9 | O=C1CN(S(=O)(=O)c2cc3ccc(Cl)cc3s2)CCN1Cc1cc2cnccc2o1 | pKa [5]: 5.8
21 | 0.045 | 3.9 | > 2.9 | O=C1CN(S(=O)(=O)c2cc3ccc(Cl)cc3s2)CCN1Cc1cc2cc[nH]cc-2n1 | pKa [5]: 8
22 | 0.038 | > 3.9 | > 2.9 | O=C1CN(S(=O)(=O)c2cc3ccc(Cl)cc3s2)CCN1Cc1cc2c[n+]([O-])ccc2[nH]1 | –
23 | > 1.2 | > 3.9 | > 2.9 | O=C1CN(S(=O)(=O)c2cc3ccc(Cl)cc3s2)CCN1Cc1cc2[nH]cccc-2n1 | pKa [5]: 6.9
24 | 0.003 | – | – | O=C1CN(S(=O)(=O)c2cc3ccc(Br)cc3s2)CCN1Cc1cc2c[nH]ccc-2n1 | –
25 | – | > 3.9 | > 2.9 | Nc1[nH]ccc2nc(CN3CCN(S(=O)(=O)c4cc5ccc(Cl)cc5s4)CC3=O)cc1-2 | pKa [5]: 9.3
26 | > 1.2 | > 3.9 | > 2.9 | O=C1CN(S(=O)(=O)c2cc3ccc(Cl)cc3s2)CCN1Cc1cc2c(O)[nH]ccc-2n1 | –
